The target in this assay is T1, NLK (Homo sapiens, UniProt Q9UBE8).
T1 sequence (Q9UBE8 1-527): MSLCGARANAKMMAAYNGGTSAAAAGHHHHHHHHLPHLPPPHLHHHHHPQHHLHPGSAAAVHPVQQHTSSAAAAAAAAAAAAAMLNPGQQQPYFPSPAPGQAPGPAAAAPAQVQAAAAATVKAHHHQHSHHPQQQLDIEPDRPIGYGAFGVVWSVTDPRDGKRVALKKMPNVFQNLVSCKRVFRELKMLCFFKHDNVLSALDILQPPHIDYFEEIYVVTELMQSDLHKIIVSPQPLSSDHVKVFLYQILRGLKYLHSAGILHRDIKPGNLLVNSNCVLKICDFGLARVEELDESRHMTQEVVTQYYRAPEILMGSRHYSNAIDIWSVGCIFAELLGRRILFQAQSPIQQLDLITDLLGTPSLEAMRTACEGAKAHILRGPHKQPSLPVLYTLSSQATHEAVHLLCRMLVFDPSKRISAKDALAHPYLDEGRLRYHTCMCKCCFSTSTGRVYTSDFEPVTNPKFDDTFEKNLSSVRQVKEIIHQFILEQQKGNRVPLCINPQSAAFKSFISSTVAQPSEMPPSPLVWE
Kind of assay: Kinase assay of NLK immunopurified from treated differentiating human progenitors. Particulars: for reduction in kinase activity of NLK immuno-precipitated from treated cultures: RPS19-insufficient human progenitors. It is filed as cell-based. Details: 5000 cells per treatment were lysed and immunopurified NLK was subjected to in vitro kinase assay; endogenous in cells; host or cells: human cord blood CD34+ HSPCs transduced with shLuc / shRPS19 / shRPL11, differentiating in erythroid medium. Here is the method: FIG. 7. SD208 increases erythroid expansion in human model of DBA through inhibition of NLK and not TGFβ. (a) Differentiating cord blood CD34+ progenitors were transduced with shRNA against luciferase or RPS19 and treated with inhibitors at working concentrations for TGFβ inhibition every three days. Cells were counted and CD235+ erythroid cells were assessed by flow cytometry after 15 days. (b) Prior to flow cytometry, 5000 cells per group were taken from differentiating cultures for NLK kinase assay. (c) CD34+ progenitors were transduced with shRNA against luciferase or RPS19 and non-targeting or siRNA against NLK. After sorting, samples were split into two groups and either treated with vehicle or SD208 every three days. After 15 days cells were counted and subject to flow cytometry to compare the expansion of maturing CD235+ erythroid (left panel) and CD11b+ myeloid cells (right panel). (d) Cord Blood CD34+ progenitors were transduced with shRNA against luciferase (left panel) or RPS19 (right panel) differentiated in erythroid media for 15 days alone, or in the presence of SB525334 or SD208 at 5 μM. Cells were counted and CD235+ erythroid (D—upper) and CD11b+ myeloid cell (D—lower) percentages were determined by flow cytometry. The number of erythroid or myeloid cells is expressed as a percentage of the number of that lineage with no cytokine or drug treatment.
FIG. 8. NLK inhibition increases expansion of erythroid progenitors from human and murine models of DBA. Human cord blood CD34+ progenitors were transduced with lentivirus co-expressing GFP with shRNA against luciferase (shLuc), RPS19 (shRPS19) or RPL11 (shRPL11). After 36 hours cells GFP+ cells were differentiated in erythroid media in the presence or absence of 5 μM SD208 for 15 days. Cells were counted and assessed for cell surface expression of CD235. (a) The percentage of CD235+ cells was multiplied by the cell count and values were compared as a percentage of untreated controls. (b) Normalizing values relative to untreated RPS19-insufficiency progenitors facilitates direct comparison of erythropoiesis between untreated and SD208-treated cultures. (c) Approximately 3000 cells were removed from differentiating treatments at day 6 and NLK activity was assessed. Values were normalized to reflect a fold induction relative to untreated controls. (d) Lin-Kit+ hematopoietic progenitors were obtained from three mouse embryos expressing tetracycline-inducible shRNA against RPS19 at day E14.5 or three untreated mice, and thee mature RPL11^+/+ or three mature RPL11^+/lox mice treated with tamoxifen for eight weeks. Cells were grown in the presence or absence of doxycycline and/or SD208 for eight days prior to counting and assessing for ter119 surface expression. Values were expressed as a percentage relative to untreated controls (e) and directly comparing the effect of SD208 on erythropoiesis in ribosomal-insufficiency by expressing values relative to untreated ribosome-insufficient cultures (f). At day 5 approximately 3000 cells were assayed for NLK kinase assay (g). CD34+ HSPCs were isolated from three healthy control and three DBA patient mononuclear bone marrow aspirates by magnetic bead sorting and differentiated in the presence or absence of SD208 for 14 days. After counting the total cell population, the ratio of CD235+ erythroblasts was determined by flow cytometry and number of CD235+ erythroblasts calculated. This was expressed as a percentage of the average number of erythroid cells present in untreated healthy controls. (h) The direct effect of SD208 on erythroid expansion in DBA patient samples was calculated following normalization of untreated DBA patient samples as 1-fold, (i) At day five, 3000 cells from each of the differentiating cultures was analyzed for NLK activity by kinase assay and are expressed as a fold induction relative to untreated healthy controls. […]

[1] abbreviates: RPS19-insufficient progenitors, 50 mM metformin, 5 days.

`Fc1ccc(Cl)cc1-c1nc(Nc2ccncc2)c2nccnc2n1` [SD208]: the “reduction in kinase activity of NLK immuno-precipitated from treated cultures” value was found to be 92.5%. Where the note is “RPL11-insufficiency with SD208 5 μM, 3.0-fold without”, the “NLK activity, NLK phosphorylation, fold of untreated controls” value is on record as 1.2 fold. For the setting “RPL11-insufficiency with SD208 5 μM, 4.6-fold without”, the “NLK activity, Myb phosphorylation, fold of untreated controls” value was found to be 1.38 fold. Moreover, where the note is “RPL11-insufficiency with SD208 5 μM, 7.3-fold without”, the “NLK activity, raptor phosphorylation, fold of untreated controls” value was 1.6 fold. Where the note is “RPS19-insufficiency with SD208 5 μM, 3.5-fold without”, the “NLK activity, NLK phosphorylation, fold of untreated controls” value is reported as 1.2 fold. For the setting “RPS19-insufficiency with SD208 5 μM, 5.2-fold without”, the “NLK activity, Myb phosphorylation, fold of untreated controls” value worked out at 1.5 fold. Moreover, the “NLK activity, raptor phosphorylation, fold of untreated controls” value (RPS19-insufficiency with SD208 5 μM, 8.4-fold without) worked out at 1.7 fold.
For the molecule `CN(C)C(=N)N=C(N)N` [metformin], under setting [1], the “reduction of phosphorylation of NLK” value turned out to be 48.5%, the “reduction of phosphorylation of c-Myb” value is listed as 39.8% and the “reduction of phosphorylation of raptor” value is 40.2%.
Consider `Cc1cccc(-c2nn3c(c2-c2ccnc4ccc(C(N)=O)cc24)CCC3)n1` [Galunisertib], for which the “reduction in kinase activity of NLK immuno-precipitated from treated cultures” value was determined as 61.2%.
Same read-out and setting: under `NC(=O)c1ccc(-c2nc(-c3ccc4c(c3)OCO4)c(-c3ccccn3)[nH]2)cc1` [SB431542] stands 73.6%.

Source of the values: patent US12403132B2, “Methods of treating bone marrow failure syndromes and compositions for use in the same” (The Board of Trustees of the Leland Stanford Junior …, priority 2020, dated 2025).
